Experimental data as given in patent US4877778A, “Method of enhancing lipophile transport using cyclodextrin derivatives” (priority 1987, dated 1989).

Assays:
[1] = in vivo
Protocol: (§1) The infusion was therefore discontinued and 250 mL of fresh frozen plasma was administered over 3 hours.

[2] = test system: patient with severe, chronic hypervitaminosis A; conditions: human, in vivo
Protocol: as §1

LDM [1]: 536 U/L
Serum pH and concentrations of glucose, protein, albumin, calcium, phosphate, and hepatic transaminases [1]: remained normal throughout the infusion
chloride [1]: 107 M EQ/L
sodium [1]: 138 M EQ/L
Substance: 2-hydroxypropyl-β-cyclodextrin
symptoms during infusion [2]: generalized irritability and pain in the legs and shins
